In one experiment the target is T1, human Orexin 1 receptor (Homo sapiens, UniProt O43613).
T1 construct: stably expressing the full-length human Orexin 1 receptor; expressed in transfected cells; host or cells: CHO-K1 (CHO-K1/hOx1), co-expressing the aequorin photoprotein
T1 sequence (O43613 1-425): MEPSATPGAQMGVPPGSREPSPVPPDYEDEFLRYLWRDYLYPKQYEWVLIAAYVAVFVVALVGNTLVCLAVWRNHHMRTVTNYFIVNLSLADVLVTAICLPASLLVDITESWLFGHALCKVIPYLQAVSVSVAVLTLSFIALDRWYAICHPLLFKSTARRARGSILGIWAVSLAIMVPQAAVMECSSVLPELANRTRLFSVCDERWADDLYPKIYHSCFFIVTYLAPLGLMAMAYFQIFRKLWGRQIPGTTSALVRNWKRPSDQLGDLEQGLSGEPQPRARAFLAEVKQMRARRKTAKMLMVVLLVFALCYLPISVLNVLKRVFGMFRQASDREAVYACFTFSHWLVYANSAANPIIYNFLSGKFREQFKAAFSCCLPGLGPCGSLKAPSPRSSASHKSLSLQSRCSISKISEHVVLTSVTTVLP
Nature of the experiment: Assay A: OX1R IP1 (in vitro OX1R potency). Format: cell-based. The conditions noted are these: for Kb: Table 3, read-out: Assay A OX1R Kb (Orexin A concentration); for OX1R selectivity over OX2R (selectivity ratio OX2R Kb/OX1R Kb) compared to Example 91 in WO2016/034882 / OX1R potency compared to Example 91 in WO2016/034882: in words, versus Example 91 in WO2016/034882. The text has this:
Activation of the orexin receptors expressed in cell lines results in an increase in intracellular IP3 concentration. IP1, a downstream metabolite of IP3, accumulates in cells following receptor activation and is stable in the presence of LiCl. Using Homogeneous Time-Resolved Fluorescence technology with Lumi4-Tb cryptate (commercially available from Cisbio Bioassay.) and a suitable fluorescence plate reader. […] This technique is used to characterize pharmacological modification of the orexin receptors.
A. In Vitro Testing of OX1R Potency: OX1R IP1
IP1 measurements are performed in CHO-K1 cells stably expressing the full-length human Orexin 1 receptor and the aequorin photoprotein. Cells are cultivated in Ham's nutrient mixture F12 medium with 10% fetal calf serum, in a 37° C., 95% humidity and 5% CO2 incubator. The CHO-K1/hOx1 cell mass is expanded to larger cell numbers. The cells are obtained as frozen cells in cryo-vials and stored until use at −150° C. […] In preparation for the assay, 24 hours before the assay, the cells are thawed at 37° C. and immediately diluted with cell culture medium. After centrifugation, the cell pellet is re-suspended in medium and then distributed into the assay plates with a density of 10000 cells/25 μL per well. The plates are incubated for one hour at room temperature to reduce edge effects before they are incubated for 24 hours at 37° C./5% CO2. Compounds are prepared by an 8-point serial dilution in DMSO and a final dilution step into assay buffer (HBSS with 20 mM HEPES, 0.1% BSA and 50 mM LiCl, pH 7.4) to ensure a final DMSO concentration of 1% in the assay.
(§1) On the day of the assay, cells in the plate are washed twice with 60 μL assay buffer (20 μL buffer remained in the wells after washing), followed by adding 5 μL per well of compounds diluted in assay buffer. After 15 minutes of incubation at room temperature 5 μL per well of Orexin A peptide (final concentration: 0.5 nM and/or 50 nM) dissolved in assay buffer is added to the assay plate. The assay plate is incubated for 60 minutes at 37° C. Then 5 μl per well of Anti-IP1-Cryptate Tb solution and 5 μl per well of IP1-d2 dilution are added and the plate is incubated for a further 60 minutes light protected at room temperature.
8-point four parametric non-linear curve fitting and determination of IC50 values and Hill slopes is performed using a regular analysis software e.g. AssayExplorer (Accelrys). In order to establish an agonist concentration independent parameter, Kb values are calculated using the following equation: IC50/((2+(A/EC50)^n)^1/n−1) (with A=concentration agonist, EC50=EC50 agonist, n=Hill slope agonist).

Another experiment concerns the target T2, human orexin 2 receptor (Homo sapiens, UniProt O43614).
T2 construct: stably expressing the full-length human orexin 2 receptor; expressed in transfected cells; host or cells: CHO-K1 (CHO-K1/hOx2), co-expressing the aequorin photoprotein
T2 sequence (O43614 1-444): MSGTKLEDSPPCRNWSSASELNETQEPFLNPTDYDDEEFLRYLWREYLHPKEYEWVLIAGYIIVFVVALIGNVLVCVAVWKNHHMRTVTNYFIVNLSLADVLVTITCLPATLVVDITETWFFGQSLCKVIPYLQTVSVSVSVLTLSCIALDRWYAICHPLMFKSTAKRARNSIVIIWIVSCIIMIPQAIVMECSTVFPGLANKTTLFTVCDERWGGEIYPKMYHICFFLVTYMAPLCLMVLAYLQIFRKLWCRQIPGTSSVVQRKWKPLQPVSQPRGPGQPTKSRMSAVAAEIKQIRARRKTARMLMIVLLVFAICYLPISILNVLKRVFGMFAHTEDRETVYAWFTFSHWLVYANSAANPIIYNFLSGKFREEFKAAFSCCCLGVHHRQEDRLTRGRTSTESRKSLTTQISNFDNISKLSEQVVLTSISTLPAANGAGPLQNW
Nature of the experiment: Assay B: OX2R IP1 (in vitro OX2R potency). Format: cell-based. The note with it: Table 3; 0.5 nM Orexin A.
Description: Activation of the orexin receptors expressed in cell lines results in an increase in intracellular IP3 concentration. IP1, a downstream metabolite of IP3, accumulates in cells following receptor activation and is stable in the presence of LiCl. Using Homogeneous Time-Resolved Fluorescence technology with Lumi4-Tb cryptate (commercially available from Cisbio Bioassay.) and a suitable fluorescence plate reader. […] Chem. Genomics 2009, 3, 22-32. This technique is used to characterize pharmacological modification of the orexin receptors.
B. In Vitro Testing of OX2R Potency: OX2R IP1
IP1 measurements are performed in CHO-K1 cells stably expressing the full-length human orexin 2 receptor and the aequorin photoprotein. Cells are cultivated in Ham's nutrient mixture F12 medium with 10% fetal calf serum, in a 37° C., 95% humidity and 5% CO2 incubator. The CHO-K1/hOx2 cell mass is expanded to larger cell numbers. The cells are obtained as frozen cells in cryo-vials and stored until use at −150° C. The viability of the cells after thawing is >90%. In preparation for the assay, 24 hours before the assay, the cells are thawed at 37° C. and immediately diluted with cell culture medium. After centrifugation, the cell pellet is resuspended in medium and then distributed into the assay plates with a density of 5000 cells/25 μL per well. The plates are incubated for one hour at room temperature to reduce edge effects before they are incubated for 24 hours at 37° C./5% CO2. Compounds are prepared by a 8-point serial dilution in DMSO and a final dilution step into assay buffer (HBSS with 20 mM HEPES, 0.1% BSA and 50 mM LiCl, pH 7.4) to ensure a final DMSO concentration of 1% in the assay.
as §1, with “concentration: 0.5 nM) dissolved” for “concentration: 0.5 nM and/or 50 nM) dissolved”, “are added to all well of the plate and the” for “are added and the”, “room temperature. The emission at 615 nm and 665 nm (Excitation wavelength: 320 nm) are measured using an EnVision reader (PerkinElmer). The ratio between the emission at 665 nm and 615 is calculated by the reader.” for “room temperature.”
8-point four parametric non-linear curve fitting and determination of […] values and Hill slopes is performed using a regular analysis software e.g. AssayExplorer (Accelrys). In order to establish an agonist concentration independent parameter, Kb values are calculated using the following equation: IC50/((2+(A/EC50)^n)^1/n−1) (with A=concentration agonist, EC50=EC50 agonist, n=Hill slope agonist) (see P. Leff, I. G. Dougall, Trends Pharmacol. Sci. 1993, 14(4), 110-112).

In the next experiment the target is T3, OX2R (Homo sapiens, UniProt O43614).
T3 sequence (O43614 1-444): T2 sequence (O43614 1-444)
The note with it: cited from earlier work.

Structures are written as SMILES. pIC50: −log10 of the molar value. Like-named read-outs stand apart in the source and are kept apart here. A value given as a limit tells only on which side of the number the result lay.

With `CCN(C(=O)c1cc(F)ccc1-n1nccn1)[C@@H](C)COc1ncc(C(F)(F)F)cn1` [Example 20], at human Orexin 1 receptor, the “OX2R Kb/OX1R Kb” value came to 309 and the “OX1R selectivity over OX2R (selectivity ratio OX2R Kb/OX1R Kb) compared to Example 91 in WO2016/034882” value was “more selective”. Besides, the Kb at human Orexin 1 receptor (0.5 nM Orexin A) turned out to be 2.6 nM. The same molecule had a Kb at human orexin 2 receptor of 803 nM.

Consider `CCN(C(=O)c1ccc(F)cc1-n1nccn1)[C@@H](C)COc1ncc(C(F)(F)F)cn1` [Example 7], for which, at human Orexin 1 receptor, the “OX2R Kb/OX1R Kb” value is on record as 201 and the “OX1R selectivity over OX2R (selectivity ratio OX2R Kb/OX1R Kb) compared to Example 91 in WO2016/034882” value is “more selective”. Further, the Kb at human Orexin 1 receptor (0.5 nM Orexin A) turned out to be 4.5 nM. For the same molecule, on human orexin 2 receptor, the Kb is 902 nM.

`CCN(C(=O)c1ccc(C)c(C)c1-n1nccn1)[C@@H](C)COc1ncc(C(F)(F)F)cn1` [Example 10]: on human Orexin 1 receptor, the “OX2R Kb/OX1R Kb” value amounted to 869, the “OX1R potency compared to Example 91 in WO2016/034882” value was “increase” and the “OX1R selectivity over OX2R (selectivity ratio OX2R Kb/OX1R Kb) compared to Example 91 in WO2016/034882” value is “increase”. Also, the Kb on human Orexin 1 receptor (50 nM Orexin A) came out at 0.65 nM. The Kb at human orexin 2 receptor was found to be 565 nM.

For the molecule `CCN(C(=O)c1ccccc1-c1noc(C)n1)[C@@H](C)COc1ncc(C(F)(F)F)cn1` [Example 23], the “OX2R Kb/OX1R Kb” value on human Orexin 1 receptor stood at 207. For the same molecule, the Kb was 2.1 nM at human Orexin 1 receptor (0.5 nM Orexin A) and 435 nM on human orexin 2 receptor. Further, the “OX1R selectivity over OX2R (selectivity ratio OX2R Kb/OX1R Kb) compared to Example 91 in WO2016/034882” value at human Orexin 1 receptor is reported as “increase in OX1R selectivity”.

One may read the pIC50 as the IC50 on a negative log10 scale, so that one unit is a factor of ten. In the case of `CC[C@@H](CNc1ncc(C(F)(F)F)cn1)N(C)C(=O)c1c(F)cccc1-n1nccn1` [Ex 91 in WO2016/ 034882], on OX2R (Table 3 of WO2016/034882), the “OX2R pIC50” value is less than 5.1. The pIC50 on OX2R (corresponds to pIC50 of Table 3 of WO2016/034882) was less than 5.10.

As for `CCN(C(=O)c1cccc(F)c1-n1nccn1)[C@@H](C)COc1ncc(C(F)(F)F)cn1` [Example 1], the Kb came to 1.7 nM on human Orexin 1 receptor (0.5 nM Orexin A), 2.5 nM on human Orexin 1 receptor (50 nM Orexin A) and 425 nM at human orexin 2 receptor. Further, at human Orexin 1 receptor, the “OX1R selectivity over OX2R (selectivity ratio OX2R Kb/OX1R Kb) compared to Example 91 in WO2016/034882” value is reported as “more selective”.

`CCN(C(=O)c1c(-n2nccn2)ccc(C)c1F)[C@@H](C)COc1ncc(C(F)(F)F)cn1` [Example 34]: on human Orexin 1 receptor, the “OX2R Kb/OX1R Kb” value was 239, the “OX1R potency compared to Example 91 in WO2016/034882” value is reported as “increase in OX1R potency” and the “OX1R selectivity over OX2R (selectivity ratio OX2R Kb/OX1R Kb) compared to Example 91 in WO2016/034882” value is “increase in OX1R selectivity”. On human Orexin 1 receptor (0.5 nM Orexin A), the Kb is 1.8 nM. Further, the Kb on human orexin 2 receptor was found to be 431 nM.

Consider `CCN(C(=O)c1cccc(C)c1-n1nccn1)[C@@H](C)COc1ncc(C(F)(F)F)cn1` [Example 11], for which the Kb amounted to 1.3 nM at human Orexin 1 receptor (0.5 nM Orexin A), 1.4 nM on human Orexin 1 receptor (50 nM Orexin A) and 160 nM at human orexin 2 receptor. Moreover, at human Orexin 1 receptor, the “OX1R potency compared to Example 91 in WO2016/034882” value is reported as “increase”. Moreover, the “OX1R selectivity over OX2R (selectivity ratio OX2R Kb/OX1R Kb) compared to Example 91 in WO2016/034882” value at human Orexin 1 receptor was “increase”.

With `CCN(C(=O)c1cc(F)cc(F)c1-n1nccn1)[C@@H](C)COc1ncc(C(F)(F)F)cn1` [Example 22], on human Orexin 1 receptor, the “OX2R Kb/OX1R Kb” value came to 406 and the “OX1R selectivity over OX2R (selectivity ratio OX2R Kb/OX1R Kb) compared to Example 91 in WO2016/034882” value is “more selective”. Besides, the Kb on human Orexin 1 receptor (0.5 nM Orexin A) turned out to be 3.6 nM. The molecule also showed a Kb on human orexin 2 receptor of 1460 nM.

On to `CCN(C(=O)c1cccc(C)c1-c1nnc(C)o1)[C@@H](C)COc1ncc(C(F)(F)F)cn1` [Example 21], for which the results for the Kb at human Orexin 1 receptor (0.5 nM Orexin A), on human Orexin 1 receptor (50 nM Orexin A) and on human orexin 2 receptor were 2 nM, 1.9 nM and 540 nM, respectively. The “OX1R selectivity over OX2R (selectivity ratio OX2R Kb/OX1R Kb) compared to Example 91 in WO2016/034882” value on human Orexin 1 receptor is given as “increase in OX1R selectivity”.

As to `CCN(C(=O)c1cc(C)ccc1-n1nccn1)[C@@H](C)COc1ncc(C(F)(F)F)cn1` [Example 5], the values for the Kb at human Orexin 1 receptor (0.5 nM Orexin A), on human Orexin 1 receptor (50 nM Orexin A) and at human orexin 2 receptor were 1 nM, 1.1 nM and 156 nM, respectively. The “OX1R potency compared to Example 91 in WO2016/034882” value at human Orexin 1 receptor was “increase”. Besides, the “OX1R selectivity over OX2R (selectivity ratio OX2R Kb/OX1R Kb) compared to Example 91 in WO2016/034882” value at human Orexin 1 receptor is “increase”.

For the molecule `CCN(C(=O)c1cc(C)ccc1-n1cccn1)[C@@H](C)COc1ncc(C(F)(F)F)cn1` [Example 8], on human Orexin 1 receptor, the “OX2R Kb/OX1R Kb” value is 228 and the “OX1R selectivity over OX2R (selectivity ratio OX2R Kb/OX1R Kb) compared to Example 91 in WO2016/034882” value is “increase in OX1R selectivity”. Moreover, on human Orexin 1 receptor (0.5 nM Orexin A), the Kb amounted to 2.2 nM. The Kb at human orexin 2 receptor is 502 nM.

These data come from patent publication US10392369B2, “N-[(pyrimidinyloxy)propanyl]benzamides” (Boehringer Ingelheim International GmbH, priority 2016, dated 2019).
